Source: the Deep4Chem optical property database

Assay: photoluminescence quantum yield (fraction); solvent given as SMILES

Structure (SMILES): Cc1ccc(-c2cnc3nn4ccccc4c3c2)cc1
- photoluminescence quantum yield (in C1CCOC1): 0.29

Structure (SMILES): CC(C)[Si]1(C(C)C)c2cc(C#N)ccc2-c2ccc(N(C)C)cc21
- photoluminescence quantum yield (in C1CCCCC1): 0.6
- photoluminescence quantum yield (in CC#N): 0.65
- photoluminescence quantum yield (in CCO): 0.74
- photoluminescence quantum yield (in CCOCC): 0.66
- photoluminescence quantum yield (in CS(C)=O): 0.51
- photoluminescence quantum yield (in ClCCl): 0.79
- photoluminescence quantum yield (in c1ccccc1): 0.62

Structure (SMILES): COc1cc(/C=C/c2nc3ccccc3s2)c(OC)cc1/C=C/c1ccncc1
- photoluminescence quantum yield (in C1CCOC1): 0.75
- photoluminescence quantum yield (in CC#N): 0.5
- photoluminescence quantum yield (in CN(C)C=O): 0.67
- photoluminescence quantum yield (in Cc1ccccc1): 0.86

Structure (SMILES): c1ccc(N(c2ccccc2)c2ccc3c(ccc4nc5ccc6cc(N(c7ccccc7)c7ccccc7)ccc6c5nc43)c2)cc1
- photoluminescence quantum yield (in C1CCCCC1): 0.56
- photoluminescence quantum yield (in C1CCOC1): 0.59
- photoluminescence quantum yield (in CN(C)C=O): 0.34
- photoluminescence quantum yield (in Cc1ccccc1): 0.44
- photoluminescence quantum yield (in ClCCl): 0.64

Structure (SMILES): c1cc2c3c4c5c(cccc5cc3c1)-c1cccn1B4n1cccc1-2
- photoluminescence quantum yield (in C1CCOC1): 0.07

Structure (SMILES): COc1nc(Nc2ccc3ccc4cccc5ccc2c3c45)nc(OC)n1
- photoluminescence quantum yield (in CC#N): 0.24
- photoluminescence quantum yield (in CCCCOCCCC): 0.57
- photoluminescence quantum yield (in CO): 0.02

Structure (SMILES): COc1ccc2cc(C#Cc3ccc([N+](=O)[O-])cc3)ccc2c1
- photoluminescence quantum yield (in C1CCOC1): 0.025
- photoluminescence quantum yield (in ClC(Cl)Cl): 0.03
- photoluminescence quantum yield (in ClCCl): 0.015

Structure (SMILES): c1ccc(-c2nn(-c3ccccc3)c3nc4ccc(N(c5ccccc5)c5ccccc5)cc4cc23)cc1
- photoluminescence quantum yield (in C1CCCCC1): 0.76
- photoluminescence quantum yield (in C1CCOC1): 0.7
- photoluminescence quantum yield (in CC#N): 0.46
- photoluminescence quantum yield (in CC(C)=O): 0.59
- photoluminescence quantum yield (in CCCCCl): 0.7
- photoluminescence quantum yield (in CCCCOCCCC): 0.76
- photoluminescence quantum yield (in CN(C)C=O): 0.5

Structure (SMILES): Cc1cc(C)c(B(c2ccc(N3c4ccccc4C(C)(C)c4ccccc43)cc2)c2c(C)cc(C)cc2C)c(C)c1
- photoluminescence quantum yield (in Cc1ccccc1): 0.89

Structure (SMILES): O=C(O)c1ccc(C(=O)O)c2cc3ccccc3cc12
- photoluminescence quantum yield (in C1CCOC1): 0.61
- photoluminescence quantum yield (in CN(C)C=O): 0.19

Structure (SMILES): COc1cc2c3c(c4cc(OC)c(OC)c(OC)c4c2c(OC)c1OC)=[N+]1C(=C(c2c(C)cc(C)cc2C)c2cc4c5cc(OC)c(OC)c(OC)c5c5c(OC)c(OC)c(OC)cc5c4n2[B-]1(F)F)C=3
- photoluminescence quantum yield (in C1CCCCC1): 0.1
- photoluminescence quantum yield (in C1CCOC1): 0.001
- photoluminescence quantum yield (in CC#N): 0.001
- photoluminescence quantum yield (in Cc1ccccc1): 0.001
- photoluminescence quantum yield (in ClCCl): 0.001

Structure (SMILES): COc1ccc(-c2cc(-c3ccccc3)nn2C)cc1
- photoluminescence quantum yield (in ClCCl): 0.21

Structure (SMILES): [O-][n+]1c(/C=C/c2ccc(/C=C/c3ccccc3)cc2)nc(N2CCOCC2)c2c1CCCC2
- photoluminescence quantum yield (in ClCCl): 0.04

Structure (SMILES): Cc1ccc(-c2nc3sc4ccccc4c3s2)cc1
- photoluminescence quantum yield (in CS(C)=O): 0.89

Structure (SMILES): COc1cc(-c2nc3c4cccnc4c4ncccc4c3[nH]2)c(OC)cc1/C=C/c1ccncc1
- photoluminescence quantum yield (in C1CCOC1): 0.79
- photoluminescence quantum yield (in CC#N): 0.48
- photoluminescence quantum yield (in CN(C)C=O): 0.59
- photoluminescence quantum yield (in Cc1ccccc1): 0.34

Structure (SMILES): N#Cc1ccc(/C=C/C(F)(F)F)c(N)c1
- photoluminescence quantum yield (in C1CCOC1): 0.82

Structure (SMILES): Cn1c(=O)c2c(ncn2C)n(C)c1=O
- photoluminescence quantum yield (in O): 0

Structure (SMILES): CC1(C)c2ccccc2N(c2ccc(C(=C(C#N)C#N)c3ccc(N4c5ccccc5C(C)(C)c5ccccc54)cc3)cc2)c2ccccc21
- photoluminescence quantum yield (in Cc1ccccc1): 0.0171

Structure (SMILES): CCCC1(CCC)c2ccccc2-c2ccc(-c3ccc(OC)cc3)cc21
- photoluminescence quantum yield (in C1CCCCC1): 0.41

Structure (SMILES): COc1ccc(N(c2ccc(/C=C(\C)c3ccccc3)cc2)c2ccc(/C=C(\C)c3ccccc3)cc2)cc1
- photoluminescence quantum yield (in Cc1ccccc1): 0.48

Structure (SMILES): Cc1nc2c(ccc3ccc(N(C)C)cc32)oc1=O
- photoluminescence quantum yield (in c1ccccc1): 0.084

Structure (SMILES): CCCCOC(=O)c1cc(Oc2ccc(C(C)(C)C)cc2)c2c3c(Cl)cc4c5c(cc(Cl)c(c6c(Oc7ccc(C(C)(C)C)cc7)cc(C(=O)OCCCC)c1c26)c53)C(=O)N(c1c(C(C)C)cccc1C(C)C)C4=O
- photoluminescence quantum yield (in Cc1ccccc1): 0.79

Structure (SMILES): C(=C\c1ccc(N(c2ccccc2)c2ccccc2)cc1)/c1ccc(-c2cc(-c3ccccn3)nc(-c3ccccn3)c2)cc1
- photoluminescence quantum yield (in C1CCOC1): 0.55
- photoluminescence quantum yield (in C1COCCO1): 0.46
- photoluminescence quantum yield (in CC#N): 0.53
- photoluminescence quantum yield (in CCO): 0.54
- photoluminescence quantum yield (in ClCCl): 0.55

Structure (SMILES): NNC(=O)NNN1C(=O)c2cc(S(=O)(=O)[O-])cc3c(N)c(S(=O)(=O)[O-])cc(c23)C1=O
- photoluminescence quantum yield (in C1COCCO1): 0.06
- photoluminescence quantum yield (in CC#N): 0.49
- photoluminescence quantum yield (in CC(C)=O): 0.29
- photoluminescence quantum yield (in CC(C)O): 0.62
- photoluminescence quantum yield (in CCCCCCCCO): 0.75
- photoluminescence quantum yield (in CCO): 0.54
- photoluminescence quantum yield (in CCOC(C)=O): 0.03
- photoluminescence quantum yield (in CO): 0.25
- photoluminescence quantum yield (in CS(C)=O): 0.59
- photoluminescence quantum yield (in O): 0.21
- photoluminescence quantum yield (in OCCO): 0.5
- photoluminescence quantum yield (in c1ccncc1): 0.26
